Results as given in PMC6201272 (Journal of natural products, 2016).

What was measured:
[1] = test system: human colorectal tumor cell line (HCT-116); experiment: Cytotoxicity against human colorectal tumor cell line HCT-116; format: cell-based; conditions: maximum tested concentration 50 μg/mL
[2] = test system: bacterial strains and cell lines of Table 3; experiment: Cytotoxity and antibacterial activity, all assays; format: cell-based
E.faecium ATCC 51299 = experiment: MIC determination; format: cell-based, Enterococcus faecium; conditions: duplicate, at least two independent experiments
E.faecium ATCC 29212 = experiment: MIC determination; format: cell-based, Enterococcus faecium; conditions: duplicate, at least two independent experiments
P. aeruginosa ATCC 27853 = experiment: MIC determination, P. aeruginosa ATCC 27853; format: cell-based
S. aureus ATCC 43300 = experiment: MIC determination; format: cell-based, Staphylococcus aureus; conditions: duplicate, at least two independent experiments
[3] = test system: monkey kidney cell line (BSC-1); experiment: Cytotoxicity against monkey kidney cell line BSC-1; format: cell-based
C. albicans ATCC 28517 = experiment: MIC determination, C. albicans ATCC 28517; format: cell-based
S. aureus ATCC 29213 = experiment: MIC determination; format: cell-based, Staphylococcus aureus; conditions: duplicate, at least two independent experiments
E. coli ATCC 25922 = experiment: MIC determination; format: cell-based, Escherichia coli; conditions: for Minimum inhibitory concentration, E. coli ATCC 25922: MIC, duplicate, at least two independent experiments
[4] = test system: bacteria (broad-spectrum); conditions: cited from earlier work

Compound | Toxicity against HCT-116 (in words) [1] | Cytotoxity and antibacterial activity in all assays (in words) [2] | Minimum inhibitory concentration, E.faecium ATCC 51299 (E.faecium ATCC 51299) [µg/mL] | Minimum inhibitory concentration, E.faecium ATCC 29212 (E.faecium ATCC 29212) [µg/mL] | Minimum inhibitory concentration, P. aeruginosa ATCC 27853 (P. aeruginosa ATCC 27853) [µg/mL] | Minimum inhibitory concentration, S. aureus ATCC 43300 (S. aureus ATCC 43300) [µg/mL] | Cytotoxicity Bsc-1 (IC50) [3] [µg/mL] | Minimum inhibitory concentration, C. albicans ATCC 28517 (C. albicans ATCC 28517) [µg/mL] | Minimum inhibitory concentration, S. aureus ATCC 29213 (S. aureus ATCC 29213) [µg/mL] | Minimum inhibitory concentration, E. coli ATCC 25922 (E. coli ATCC 25922) [µg/mL] | Antibacterial activity previously reported (in words) [4] | Inhibition of growth of E. coli (in words) (E. coli ATCC 25922; authors' antimicrobial assays)
COc1c(Br)cc(Br)cc1Oc1c(Br)c(OC)c(Br)c(Br)c1OC [Compound 8a, 1-(3′,5′,6′-Tribromo-1′,4′-dimethoxy-1′-phenoxy)-3,5-dibromo-2-methoxybenzene] | nontoxic | inactive in all assays |  |  |  |  |  |  |  |  |  | 
1-(4′,5′,6′-Tribromo-1′-methoxyphenoxy)-3,5-dibromo-2-methoxybenzene [Compound 5a] |  |  | >50 | >50 | >50 | >50 | >50 | >50 | >50 | >50 |  | 
Oc1c(Br)cc(Br)cc1Oc1ccc(Br)cc1Br [Compound 10] |  |  |  |  |  |  |  |  |  |  | broad-spectrum antibacterial activity | did not inhibit the growth
1-(3′,4′,6′-Tribromo-1′-methoxyphenoxy)-3,5-dibromo-2-methoxybenzene [Compound 3a] |  |  | >50 | 50 | >50 | >50 | >50 | >50 | >50 | >50 |  | 
